Measurements from patent US4732977A, “Carbapenem antibiotics” (priority 1986, dated 1988).
Converted amounts (≈) assume the structure as drawn. Like-named read-outs stand apart in the source and are kept apart here.

How the values were obtained:
P. aeruginosa A21213 = experiment: M.I.C., tube dilution; assay type: cell-based; conditions: Pseudomonas aeruginosa, A21213, overnight incubation at 37° C., Nutrient Broth; read-out: MIC
S. pyogenes A-9604 = experiment: M.I.C., tube dilution; assay type: cell-based; conditions: Streptococcus pyogenes, A9604; overnight incubation at 37° C., Nutrient Broth; read-out: MIC
E. coli A15119 = experiment: M.I.C., tube dilution; assay type: cell-based; conditions: Escherichia coli, A15119
[1] = Blood levels in mice after intramuscular administration; conditions: mouse, blood, im, 20 mg/kg;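 also: compounds dissolved in 0.1 M phosphate buffer at pH 7, data from one experiment using four mice for each compound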
Text: Compounds were solubilized in 0.1 M phosphate buffer pH 7.
a single test; 4 mice used per compound.
Compounds were solubilized in 0.1 M phosphate buffer, pH 7.
on a single test; 4 mice per compound.

P. vulgaris A21559 = experiment: M.I.C., tube dilution; assay type: cell-based; conditions: Proteus vulgaris, A21559, overnight incubation at 37° C., Nutrient Broth; read-out: MIC
S. pneumoniae A-9585 = experiment: M.I.C., tube dilution; assay type: cell-based; conditions: Streptococcus pneumoniae, A9585; overnight incubation at 37° C., Nutrient Broth; read-out: MIC
E. coli A20341-1 = experiment: M.I.C., tube dilution; assay type: cell-based; conditions: Escherichia coli
K. pneumoniae A9664 = experiment: Protective effect in intramuscular treatment of infected mice; assay type: in vivo; conditions: Klebsiella pneumoniae
Text: (§1) The PD50 (dose in mg/kg) required to give protection to 50% of the infected mice is indicated.

B. fragilis A22862 = experiment: M.I.C., tube dilution; assay type: cell-based; conditions: Bacteroides fragilis, overnight incubation at 37° C., Nutrient Broth
P. mirabilis A-9900 = experiment: Protective effect in intramuscular treatment of infected mice; assay type: in vivo; conditions: Proteus mirabilis, mice, i.m., read-out: PD50/treatment
Experimental: (§2) The PD50 (dose in mg/kg required to give protection to 50% of the infected mice) is indicated.
with drugs 0 and 2 hours postinfection.
as §1

P. aeruginosa A-9843a = experiment: animal or person; assay type: in vivo, mice; conditions: Pseudomonas aeruginosa, A9843A, in Mus musculus, im, read-out: PD50/treatment
Experimental: as §2
with drugs 0 and 2 hours postinfection.
as §1

H. influenzae A21518 = experiment: M.I.C., tube dilution; assay type: cell-based; conditions: Haemophilus influenzae, overnight incubation at 37° C., Nutrient Broth
E. coli A-15119 = experiment: Protective effect in intramuscular treatment of infected mice; assay type: in vivo; conditions: Escherichia coli, read-out: PD50/treatment
Experimental: as §2
with drugs 0 and 2 hours postinfection.
as §1

S. aureus A-9606 = experiment: as above; assay type: in vivo; conditions: Staphylococcus aureus, read-out: PD50/treatment
Experimental: as §2
with drugs 0 and 2 hours postinfection.
as §1

H. influenzae A-9833 = experiment: M.I.C., tube dilution; assay type: cell-based; conditions: Haemophilus influenzae, A9833; overnight incubation at 37° C., Nutrient Broth
S. faecalis A20688 = experiment: M.I.C., tube dilution; assay type: cell-based; conditions: Enterococcus faecalis, A20688, overnight incubation at 37° C., Nutrient Broth; read-out: MIC
S. aureus A-9537 = experiment: M.I.C., tube dilution; assay type: cell-based; conditions: Staphylococcus aureus, read-out: MIC
[2] = system: S. aureus A15097 (Meth-res.); experiment: M.I.C., tube dilution; assay type: cell-based; conditions: Staphylococcus aureus, overnight incubation at 37° C.
P. aeruginosa A24081 = experiment: Protective effect in intramuscular treatment of infected mice; assay type: in vivo; conditions: Pseudomonas aeruginosa, read-out: PD50/treatment
Text: as §1

S. marcescens A20019 = experiment: M.I.C., tube dilution; assay type: cell-based; conditions: Serratia marcescens, A20019; overnight incubation at 37° C., Nutrient Broth
K. pneumoniae A-9664 = experiment: M.I.C., tube dilution; assay type: cell-based; conditions: Klebsiella pneumoniae, A9664, overnight incubation at 37° C., Nutrient Broth
P. rettgeri A22424 = experiment: M.I.C., tube dilution; assay type: cell-based; conditions: Providencia rettgeri, A22424
K. pneumoniae A20468 = experiment: M.I.C., tube dilution; assay type: cell-based; conditions: Klebsiella pneumoniae, A20468, overnight incubation at 37° C., Nutrient Broth
E. cloacae A-9659 = experiment: M.I.C., tube dilution; assay type: cell-based; conditions: Enterobacter cloacae, A9659
[3] = im, K. pneumoniae A9664, read-out: PD50/treatment
[4] = im, mice, i.m., P. aeruginosa A24081
[5] = im, mice, i.m., S. aureus A9606
[6] = A203411, overnight incubation at 37° C., Nutrient Broth, read-out: MIC
[7] = overnight incubation at 37° C., Nutrient Broth, read-out: MIC

Row | SMILES | MIC (P. aeruginosa A21213) [µg/mL] | MIC (S. pyogenes A-9604) [µg/mL] | AUC [1] [ng·h/mL] | Cmax [1] [ng/mL] | half-life [1] [min] | MIC (P. vulgaris A21559) [µg/mL] | MIC (S. pneumoniae A-9585) [µg/mL] | ED50 (P. aeruginosa A-9843a) [mg/kg] | MIC (S. faecalis A20688) [µg/mL] | MIC (S. aureus A-9537; A9537, +50% serum) [µg/mL] | further results
1 | C[C@@H](O)[C@H]1C(=O)N2C(C(=O)[O-])=C(SCCc3cc[n+](C)cc3)C[C@H]12 [Example 2] | 2 (≈ 5.74 µM) | 0.001 (≈ 0.00287 µM) | 5300 | 13900 | 9 | 0.016 (≈ 0.0459 µM) | 0.001 (≈ 0.00287 µM) |  |  |  | MIC (E. coli A15119; table 2, no inoculum dilution printed, read-out: MIC): 0.016 µg/mL (≈ 0.0459 µM); MIC (E. coli A20341-1; A203411, table 2, no inoculum dilution printed, read-out: MIC): 0.016 µg/mL (≈ 0.0459 µM)
2 | C[C@@H](O)[C@H]1C(=O)N2C(C(=O)[O-])=C(SCCc3cccc[n+]3C)C[C@H]12 [Example 5, 3-(N-Methylpyridine-2-yl-ethanethio)-6α-[1-(R)-hydroxyethyl]-7-oxo-1-azabicyclo(3.2.0)hept-2-ene-2-carboxylate] | 2 (≈ 5.74 µM) |  |  |  |  | 0.016 (≈ 0.0459 µM) |  | 1.6 |  |  | ED50 (K. pneumoniae A9664; A9664, im, i.m., K. pneumoniae, strain not given, read-out: PD50/treatment): 3 mg/kg; MIC (B. fragilis A22862): 0.03 µg/mL (≈ 0.0861 µM); ED50 (P. mirabilis A-9900; A9900, im, P. mirabilis, strain not given): 10 mg/kg; MIC (H. influenzae A21518): 4 µg/mL (≈ 11.5 µM); ED50 (E. coli A-15119; A15119, im, mice, i.m., E. coli, strain not given): 4 mg/kg; ED50 (S. aureus A-9606; A9606, im, mice, i.m., S. aureus, strain not given): 0.2 mg/kg; MIC (H. influenzae A-9833): 4 µg/mL (≈ 11.5 µM)
3 | CCC[n+]1ccc(CSC2=C(C(=O)[O-])N3C(=O)[C@H]([C@@H](C)O)[C@H]3C2)cc1 [Example 6, 3-(1-Propylpyridine-4-yl-methanethio)-6α-[1-(R)-hydroxyethyl]-7-oxo-1-azabicyclo(3.2.0)hept-2-ene-2-carboxylate] | 1 (≈ 2.76 µM) |  | 8500 | 17700 | 9 | 0.06 (≈ 0.166 µM) |  | 0.4 | 0.5 (≈ 1.38 µM) | 0.06 (≈ 0.166 µM) | MIC (B. fragilis A22862): 0.03 µg/mL (≈ 0.0828 µM); MIC (E. coli A15119; overnight incubation at 37° C., Nutrient Broth): 0.06 µg/mL (≈ 0.166 µM); MIC [2]: 4 µg/mL (≈ 11 µM); MIC (E. coli A20341-1; A203411, overnight incubation at 37° C., Nutrient Broth): 0.06 µg/mL (≈ 0.166 µM)
4 | Cc1ccc[n+](C)c1CSC1=C(C(=O)[O-])N2C(=O)[C@H]([C@@H](C)O)[C@H]2C1 [Example 7, 3-(N-Methyl-3-methylpyridine-2-methanethio)-6α-[1-(R)-hydroxyethyl]-7-oxo-1-azabicyclo(3.2.0)hept-2-ene-2-carboxylate] |  |  | 11800 | 19200 | 11 | 0.008 (≈ 0.023 µM) |  | 0.2 |  |  | ED50 (K. pneumoniae A9664; [3]): 1 mg/kg; MIC (B. fragilis A22862): 0.016 µg/mL (≈ 0.0459 µM); ED50 (P. mirabilis A-9900; im, P. mirabilis A9900): 2.4 mg/kg; ED50 (E. coli A-15119; A15119, im): 0.2 mg/kg; ED50 (P. aeruginosa A24081; [4]): 0.1 mg/kg; ED50 (S. aureus A-9606; A9606, im): 0.2 mg/kg; MIC [2]: 2 µg/mL (≈ 5.74 µM)
5 | Cc1scc(CSC2=C(C(=O)[O-])N3C(=O)[C@H]([C@@H](C)O)[C@H]3C2)[n+]1C [Example 8, 3-(2-Methyl-N-methyl-thiazole-4-yl-methanethio)-6-α-[1-(R)-hydroxyethyl]-7-oxo-1-azabicyclo(3.2.0)hept-2-ene-2-carboxylate] |  |  | 10500 | 18800 | 11 | 0.03 (≈ 0.0846 µM) |  | 0.19 | 0.5 (≈ 1.41 µM) |  | ED50 (K. pneumoniae A9664; [3]): 1.8 mg/kg; ED50 (P. mirabilis A-9900; im, P. mirabilis A9900): 1.4 mg/kg; ED50 (E. coli A-15119; im, mice, i.m., E. coli A15119): 0.86 mg/kg; ED50 (P. aeruginosa A24081; [4]): 0.33 mg/kg; ED50 (S. aureus A-9606; [5]): 0.21 mg/kg
6 | C[C@@H](O)[C@H]1C(=O)N2C(C(=O)[O-])=C(SCc3n(C)cc[n+]3C)C[C@H]12 [Example 9, 3-(N,N'-Dimethylimidazole-2-yl-methanethio)-6α-[1-(R)-hydroxyethyl]-7-oxo-1-azabicyclo(3.2.0)hept-2-ene-2-carboxylate] |  | 0.001 (≈ 0.00296 µM) | 8500 | 16700 | 12 | 0.008 (≈ 0.0237 µM) | 0.001 (≈ 0.00296 µM) | 0.19 |  | 0.008 (≈ 0.0237 µM) | ED50 (K. pneumoniae A9664; [3]): 1.8 mg/kg; ED50 (P. mirabilis A-9900; im, P. mirabilis A9900): 7.1 mg/kg; ED50 (E. coli A-15119; im, mice, i.m., E. coli A15119): 1.2 mg/kg; ED50 (P. aeruginosa A24081; A24081, im): 0.19 mg/kg
7 | Cc1sc(CSC2=C(C(=O)[O-])N3C(=O)[C@H]([C@@H](C)O)[C@H]3C2)c(C)[n+]1C [Example 10, 3-(2,3,4-Trimethylthiazole-5-yl-methanethio)-6α-[1-(R)-hydroxyethyl]-7-oxo-1-azabicyclo(3.2.0)hept-2-ene-2-carboxylate] | 2 (≈ 5.43 µM) | 0.001 (≈ 0.00271 µM) | 9500 | 20100 | 11 | 0.016 (≈ 0.0434 µM) | 0.001 (≈ 0.00271 µM) |  |  |  | MIC (S. marcescens A20019): 0.06 µg/mL (≈ 0.163 µM); MIC (K. pneumoniae A-9664): 0.06 µg/mL (≈ 0.163 µM)
8 | CC(SC1=C(C(=O)[O-])N2C(=O)[C@H]([C@@H](C)O)[C@H]2C1)c1cc[n+](C)cc1 (stereo partly shown) [Example 12] | 2 (≈ 5.74 µM) |  |  |  |  | 0.016 (≈ 0.0459 µM) | 0.002 (≈ 0.00574 µM) | 1.8 | 0.5 (≈ 1.44 µM) | 0.016 (≈ 0.0459 µM) | MIC (P. rettgeri A22424): 0.13 µg/mL (≈ 0.373 µM); MIC (S. aureus A-9537; A9537, overnight incubation at 37° C., Nutrient Broth): 0.008 µg/mL (≈ 0.023 µM); MIC (K. pneumoniae A20468): 0.06 µg/mL (≈ 0.172 µM); ED50 (S. aureus A-9606; [5]): 0.89 mg/kg; MIC (E. cloacae A-9659): 0.06 µg/mL (≈ 0.172 µM); MIC (E. coli A20341-1; [6]): 0.008 µg/mL (≈ 0.023 µM)
9 | Cc1c(CSC2=C(C(=O)[O-])N3C(=O)[C@H]([C@@H](C)O)[C@H]3C2)ccc[n+]1C [Example 14, 3-(2-Methyl-N-methylpyridine-3-yl-methanethio)-6α[1-(R)-hydroxyethyl]-7-oxo-1-azabicyclo(3.2.0)hept-2-ene-2-carboxylate] | 0.5 (≈ 1.44 µM) | 0.0005 (≈ 0.00144 µM) | 7600 | 15800 | 13 | 0.016 (≈ 0.0459 µM) | 0.0005 (≈ 0.00144 µM) | 0.45 |  |  | ED50 (S. aureus A-9606; [5]): 0.07 mg/kg
10 | C[C@@H](O)[C@H]1C(=O)N2C(C(=O)[O-])=C(SCc3cn(C)n[n+]3C)C[C@H]12 [Example 15 "A", 3-[4-(N,N-dimethyl-1,2,3-triazolium)methylthio]-6α-[1-(R)-hydroxyethyl]-7-oxo-1-azabicyclo(3.2.0)hept-2-ene-2-carboxylate] |  | 0.0005 (≈ 0.00148 µM) | 9500 | 16700 | 12 | 0.008 (≈ 0.0236 µM) | 0.0005 (≈ 0.00148 µM) | 0.39 |  |  | 
11 | C[C@@H](O)[C@H]1C(=O)N2C(C(=O)[O-])=C(SCc3cn(CC(=O)O)n[n+]3C)C[C@H]12 [Example 18, Potassium 3-[4-(1-carboxylatomethyl-3-methyl-1,2,3-triazolium)-methanethio]-6α-[1-(R)-hydroxyethyl]-7-oxo-1-azabicyclo[3.2.0]hept-2-ene-2-carboxylate] | 63 | 2 | 3900 | 14900 | 6 |  | 1 |  | 63 | > 63 | MIC (E. coli A15119; [7]): 16 µg/mL; MIC (K. pneumoniae A20468; read-out: MIC): 63 µg/mL; MIC (E. cloacae A-9659; [7]): 63 µg/mL; MIC (E. coli A20341-1; [6]): 16 µg/mL
